Results: the supplement of paper PMC10307832

Tests used:
Assay in all cases: relative viability (nuclei count vs DMSO), 5 days (fraction); higher = more cells survive
Etoposide + Bortezomib = compound: COc1cc([C@@H]2c3cc4c(cc3[C@@H](O[C@@H]3O[C@@H]5CO[C@@H](C)O[C@H]5[C@H](O)[C@H]3O)[C@H]3COC(=O)[C@H]23)OCO4)cc(OC)c1O [Etoposide] + CC(C)C[C@H](NC(=O)[C@H](Cc1ccccc1)NC(=O)c1cnccn1)B(O)O [Bortezomib] (partner 0.002 µM)
Summary of the method: (§1)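 After 5 days of treatment, lung cancer cells in 1536-well plates were fixed and stained in a single step (final 0.05% Triton X-100, 1% formaldehyde, 1 ug/ml Hoechst) and their nuclei counted on 4× images. Treatment had been applied by pin tool the day after seeding as one drug alone or as a fixed anchor-drug dose with five library-drug doses (not always all listed) in √10 steps. Relative viability is the nuclei count of treated wells divided by that of vehicle wells, and values are medians of duplicate plates.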

Etoposide + Linsitinib = compound: COc1cc([C@@H]2c3cc4c(cc3[C@@H](O[C@@H]3O[C@@H]5CO[C@@H](C)O[C@H]5[C@H](O)[C@H]3O)[C@H]3COC(=O)[C@H]23)OCO4)cc(OC)c1O [Etoposide] + C[C@]1(O)C[C@@H](c2nc(-c3ccc4ccc(-c5ccccc5)nc4c3)c3c(N)nccn32)C1 [Linsitinib] (partner 1 µM)
Summary of the method: as §1

Bleomycin + Olaparib = compound: CC1=C(N=C(N=C1N)[C@H](CC(=O)N)NC[C@@H](C(=O)N)N)C(=O)N[C@@H]([C@H](C2=CN=CN2)OC3C(C(C(C(O3)CO)O)O)OC4C(C(C(C(O4)CO)O)OC(=O)N)O)C(=O)N[C@H](C)[C@H]([C@H](C)C(=O)N[C@@H]([C@@H](C)O)C(=O)NCCC5=NC(=CS5)C6=NC(=CS6)C(=O)NCCC[S+](C)C)O [Bleomycin] + O=C(c1cc(Cc2n[nH]c(=O)c3ccccc23)ccc1F)N1CCN(C(=O)C2CC2)CC1 [Olaparib] (partner 8 µM); conditions: main component drawn
Summary of the method: as §1

Bleomycin + Alpelisib = compound: CC1=C(N=C(N=C1N)[C@H](CC(=O)N)NC[C@@H](C(=O)N)N)C(=O)N[C@@H]([C@H](C2=CN=CN2)OC3C(C(C(C(O3)CO)O)O)OC4C(C(C(C(O4)CO)O)OC(=O)N)O)C(=O)N[C@H](C)[C@H]([C@H](C)C(=O)N[C@@H]([C@@H](C)O)C(=O)NCCC5=NC(=CS5)C6=NC(=CS6)C(=O)NCCC[S+](C)C)O [Bleomycin] + Cc1nc(NC(=O)N2CCC[C@H]2C(N)=O)sc1-c1ccnc(C(C)(C)C(F)(F)F)c1 [Alpelisib] (partner 2 µM); conditions: main component drawn
Summary of the method: as §1

Cell Line NCI-H23 has a relative viability (Etoposide + Bortezomib; first compound 0.01 µM) of 0.919, a relative viability (Etoposide + Bortezomib; first compound 0.03162 µM) of 1.15 and a relative viability (Etoposide + Bortezomib; first compound 0.1 µM) of 0.516. The relative viability (Etoposide + Bortezomib; first compound 0.3162 µM) was 0.317, the relative viability (Etoposide + Bortezomib; first compound 1 µM) was 0.215 and the relative viability (Etoposide + Linsitinib; first compound 0.01 µM) was 0.504. The relative viability (Etoposide + Linsitinib; first compound 0.03162 µM) was 0.645, the relative viability (Etoposide + Linsitinib; first compound 0.1 µM) was 0.364 and the relative viability (Etoposide + Linsitinib; first compound 0.3162 µM) was 0.409. It also gave a relative viability (Etoposide + Linsitinib; first compound 1 µM) of 0.191, a relative viability (Bleomycin + Olaparib; first compound 0.01 µM) of 0.205 and a relative viability (Bleomycin + Olaparib; first compound 0.03162 µM) of 0.153. It also gave a relative viability (Bleomycin + Olaparib; first compound 0.1 µM) of 0.171, a relative viability (Bleomycin + Olaparib; first compound 0.3162 µM) of 0.107 and a relative viability (Bleomycin + Olaparib; first compound 1 µM) of 0.107. For the same cell line, the relative viability (Bleomycin + Alpelisib; first compound 0.01 µM) was 0.327, the relative viability (Bleomycin + Alpelisib; first compound 0.03162 µM) was 0.298 and the relative viability (Bleomycin + Alpelisib; first compound 0.1 µM) was 0.192. For the same cell line, the relative viability (Bleomycin + Alpelisib; first compound 0.3162 µM) was 0.127 and the relative viability (Bleomycin + Alpelisib; first compound 1 µM) was 0.122.

IA-LM showed a relative viability (Etoposide + Bortezomib; first compound 0.01 µM) of 0.821, a relative viability (Etoposide + Bortezomib; first compound 0.03162 µM) of 0.929 and a relative viability (Etoposide + Bortezomib; first compound 0.1 µM) of 0.466. It also gave a relative viability (Etoposide + Bortezomib; first compound 0.3162 µM) of 0.837, a relative viability (Etoposide + Bortezomib; first compound 1 µM) of 0.522 and a relative viability (Etoposide + Linsitinib; first compound 0.01 µM) of 0.584. For the same cell line, the relative viability (Etoposide + Linsitinib; first compound 0.03162 µM) was 0.596, the relative viability (Etoposide + Linsitinib; first compound 0.1 µM) was 0.348 and the relative viability (Etoposide + Linsitinib; first compound 0.3162 µM) was 0.506. It also gave a relative viability (Etoposide + Linsitinib; first compound 1 µM) of 0.527, a relative viability (Bleomycin + Olaparib; first compound 0.01 µM) of 0.681 and a relative viability (Bleomycin + Olaparib; first compound 0.03162 µM) of 0.629. The relative viability (Bleomycin + Olaparib; first compound 0.1 µM) was 0.716, the relative viability (Bleomycin + Olaparib; first compound 0.3162 µM) was 0.474 and the relative viability (Bleomycin + Olaparib; first compound 1 µM) was 0.328. It also gave a relative viability (Bleomycin + Alpelisib; first compound 0.01 µM) of 0.514, a relative viability (Bleomycin + Alpelisib; first compound 0.03162 µM) of 0.614 and a relative viability (Bleomycin + Alpelisib; first compound 0.1 µM) of 0.565. It also gave a relative viability (Bleomycin + Alpelisib; first compound 0.3162 µM) of 0.372 and a relative viability (Bleomycin + Alpelisib; first compound 1 µM) of 0.246.

For NCI-H650, the relative viability (Etoposide + Bortezomib; first compound 0.01 µM) was 0.683, the relative viability (Etoposide + Bortezomib; first compound 0.03162 µM) was 0.836 and the relative viability (Etoposide + Bortezomib; first compound 0.1 µM) was 0.63. It also gave a relative viability (Etoposide + Bortezomib; first compound 0.3162 µM) of 0.417, a relative viability (Etoposide + Bortezomib; first compound 1 µM) of 0.222 and a relative viability (Etoposide + Linsitinib; first compound 0.01 µM) of 0.856. For the same cell line, the relative viability (Etoposide + Linsitinib; first compound 0.03162 µM) was 0.809, the relative viability (Etoposide + Linsitinib; first compound 0.1 µM) was 0.452 and the relative viability (Etoposide + Linsitinib; first compound 0.3162 µM) was 0.445. The relative viability (Etoposide + Linsitinib; first compound 1 µM) was 0.187, the relative viability (Bleomycin + Olaparib; first compound 0.01 µM) was 0.333 and the relative viability (Bleomycin + Olaparib; first compound 0.03162 µM) was 0.463. It also gave a relative viability (Bleomycin + Olaparib; first compound 0.1 µM) of 0.336, a relative viability (Bleomycin + Olaparib; first compound 0.3162 µM) of 0.264 and a relative viability (Bleomycin + Olaparib; first compound 1 µM) of 0.175. For the same cell line, the relative viability (Bleomycin + Alpelisib; first compound 0.01 µM) was 0.948, the relative viability (Bleomycin + Alpelisib; first compound 0.03162 µM) was 1.03 and the relative viability (Bleomycin + Alpelisib; first compound 0.1 µM) was 0.827. It also gave a relative viability (Bleomycin + Alpelisib; first compound 0.3162 µM) of 0.456 and a relative viability (Bleomycin + Alpelisib; first compound 1 µM) of 0.312.

In the case of NCI-H2085, the relative viability (Etoposide + Bortezomib; first compound 0.01 µM) is reported as 1.08, the relative viability (Etoposide + Bortezomib; first compound 0.03162 µM) is reported as 1.08 and the relative viability (Etoposide + Bortezomib; first compound 0.1 µM) is reported as 0.953. The relative viability (Etoposide + Bortezomib; first compound 0.3162 µM) was 0.674, the relative viability (Etoposide + Bortezomib; first compound 1 µM) was 0.354 and the relative viability (Etoposide + Linsitinib; first compound 0.01 µM) was 0.8. For the same cell line, the relative viability (Etoposide + Linsitinib; first compound 0.03162 µM) was 0.883, the relative viability (Etoposide + Linsitinib; first compound 0.1 µM) was 0.859 and the relative viability (Etoposide + Linsitinib; first compound 0.3162 µM) was 0.51. For the same cell line, the relative viability (Etoposide + Linsitinib; first compound 1 µM) was 0.279, the relative viability (Bleomycin + Olaparib; first compound 0.01 µM) was 0.665 and the relative viability (Bleomycin + Olaparib; first compound 0.03162 µM) was 0.716. It also gave a relative viability (Bleomycin + Olaparib; first compound 0.1 µM) of 0.47, a relative viability (Bleomycin + Olaparib; first compound 0.3162 µM) of 0.376 and a relative viability (Bleomycin + Olaparib; first compound 1 µM) of 0.383. It also gave a relative viability (Bleomycin + Alpelisib; first compound 0.01 µM) of 0.715, a relative viability (Bleomycin + Alpelisib; first compound 0.03162 µM) of 0.778 and a relative viability (Bleomycin + Alpelisib; first compound 0.1 µM) of 0.672. The relative viability (Bleomycin + Alpelisib; first compound 0.3162 µM) was 0.436 and the relative viability (Bleomycin + Alpelisib; first compound 1 µM) was 0.378.

NCI-H838 showed a relative viability (Etoposide + Bortezomib; first compound 0.01 µM) of 0.641, a relative viability (Etoposide + Bortezomib; first compound 0.03162 µM) of 0.978 and a relative viability (Etoposide + Bortezomib; first compound 0.1 µM) of 0.659. For the same cell line, the relative viability (Etoposide + Bortezomib; first compound 0.3162 µM) was 0.624, the relative viability (Etoposide + Bortezomib; first compound 1 µM) was 0.333 and the relative viability (Etoposide + Linsitinib; first compound 0.01 µM) was 0.937. The relative viability (Etoposide + Linsitinib; first compound 0.03162 µM) was 0.994, the relative viability (Etoposide + Linsitinib; first compound 0.1 µM) was 0.902 and the relative viability (Etoposide + Linsitinib; first compound 0.3162 µM) was 0.644. It also gave a relative viability (Etoposide + Linsitinib; first compound 1 µM) of 0.296, a relative viability (Bleomycin + Olaparib; first compound 0.01 µM) of 0.432 and a relative viability (Bleomycin + Olaparib; first compound 0.03162 µM) of 0.269. It also gave a relative viability (Bleomycin + Olaparib; first compound 0.1 µM) of 0.199, a relative viability (Bleomycin + Olaparib; first compound 0.3162 µM) of 0.138 and a relative viability (Bleomycin + Olaparib; first compound 1 µM) of 0.148. The relative viability (Bleomycin + Alpelisib; first compound 0.01 µM) was 0.674, the relative viability (Bleomycin + Alpelisib; first compound 0.03162 µM) was 0.29 and the relative viability (Bleomycin + Alpelisib; first compound 0.1 µM) was 0.238. The relative viability (Bleomycin + Alpelisib; first compound 0.3162 µM) was 0.161 and the relative viability (Bleomycin + Alpelisib; first compound 1 µM) was 0.212.

NCI-H460 showed a relative viability (Etoposide + Bortezomib; first compound 0.01 µM) of 0.933, a relative viability (Etoposide + Bortezomib; first compound 0.03162 µM) of 0.763 and a relative viability (Etoposide + Bortezomib; first compound 0.1 µM) of 0.608. It also gave a relative viability (Etoposide + Bortezomib; first compound 0.3162 µM) of 0.0494, a relative viability (Etoposide + Bortezomib; first compound 1 µM) of 0.0267 and a relative viability (Etoposide + Linsitinib; first compound 0.01 µM) of 0.684. It also gave a relative viability (Etoposide + Linsitinib; first compound 0.03162 µM) of 0.601, a relative viability (Etoposide + Linsitinib; first compound 0.1 µM) of 0.447 and a relative viability (Etoposide + Linsitinib; first compound 0.3162 µM) of 0.0349. The relative viability (Etoposide + Linsitinib; first compound 1 µM) was 0.0212, the relative viability (Bleomycin + Olaparib; first compound 0.01 µM) was 0.212 and the relative viability (Bleomycin + Olaparib; first compound 0.03162 µM) was 0.159. It also gave a relative viability (Bleomycin + Olaparib; first compound 0.1 µM) of 0.12, a relative viability (Bleomycin + Olaparib; first compound 0.3162 µM) of 0.0368 and a relative viability (Bleomycin + Olaparib; first compound 1 µM) of 0.073. It also gave a relative viability (Bleomycin + Alpelisib; first compound 0.01 µM) of 0.294, a relative viability (Bleomycin + Alpelisib; first compound 0.03162 µM) of 0.243 and a relative viability (Bleomycin + Alpelisib; first compound 0.1 µM) of 0.136. For the same cell line, the relative viability (Bleomycin + Alpelisib; first compound 0.3162 µM) was 0.0356 and the relative viability (Bleomycin + Alpelisib; first compound 1 µM) was 0.017.

With LOU-NH91 the relative viability (Etoposide + Bortezomib; first compound 0.01 µM) was 0.563, the relative viability (Etoposide + Bortezomib; first compound 0.03162 µM) was 0.502 and the relative viability (Etoposide + Bortezomib; first compound 0.1 µM) was 0.498. For the same cell line, the relative viability (Etoposide + Bortezomib; first compound 0.3162 µM) was 0.435, the relative viability (Etoposide + Bortezomib; first compound 1 µM) was 0.375 and the relative viability (Etoposide + Linsitinib; first compound 0.01 µM) was 0.892. It also gave a relative viability (Etoposide + Linsitinib; first compound 0.03162 µM) of 0.943, a relative viability (Etoposide + Linsitinib; first compound 0.1 µM) of 0.702 and a relative viability (Etoposide + Linsitinib; first compound 0.3162 µM) of 0.728. It also gave a relative viability (Etoposide + Linsitinib; first compound 1 µM) of 0.538, a relative viability (Bleomycin + Olaparib; first compound 0.01 µM) of 0.604 and a relative viability (Bleomycin + Olaparib; first compound 0.03162 µM) of 0.521. The relative viability (Bleomycin + Olaparib; first compound 0.1 µM) was 0.432, the relative viability (Bleomycin + Olaparib; first compound 0.3162 µM) was 0.342 and the relative viability (Bleomycin + Olaparib; first compound 1 µM) was 0.28. It also gave a relative viability (Bleomycin + Alpelisib; first compound 0.01 µM) of 0.604, a relative viability (Bleomycin + Alpelisib; first compound 0.03162 µM) of 0.498 and a relative viability (Bleomycin + Alpelisib; first compound 0.1 µM) of 0.469. The relative viability (Bleomycin + Alpelisib; first compound 0.3162 µM) was 0.388 and the relative viability (Bleomycin + Alpelisib; first compound 1 µM) was 0.322.
